From US10376523B2, “Aqueous composition containing ripasudil, or a salt, or a solvate thereof” (KOWA COMPANY, LTD., priority 2014, dated 2019)

Experiments:
[1] = test system: Pseudomonas aeruginosa NBRC 13275 strain; assay: Test Example 1: growth inhibitory activity on Pseudomonas aeruginosa (membrane filter method, colony count); format: cell-based; conditions: 2 g ripasudil monohydrochloride dihydrate in 270 mL phosphate buffer pH 7.2
Experimental: (§1) In order to examine ripasudil for the presence or absence of growth inhibitory activity on microorganisms (bacteria and fungi), the following tests were performed using Pseudomonas aeruginosa as a bacterium and Candida albicans as a fungus. Pseudomonas aeruginosa NBRC 13275 strain was seeded on the soybean-casein digest medium (Merck Corporation) and cultured at 30 to 35° C. for 20 to 22 hours. The culture was then diluted with peptone saline buffer (pH 7.0) to 1,000 CFU/mL or less to obtain a test bacterial suspension. Two grams of ripasudil monohydrochloride dihydrate were dissolved in 270 mL of phosphate buffer (pH 7.2) to obtain a dilute sample solution. A sample was obtained by mixing 0.5 mL of the test bacterial suspension with 50 mL of the dilute sample solution (note that a mixture of 0.5 mL of the test bacterial suspension and 50 mL of phosphate buffer (pH 7.2) was used as a control sample). […] After the culture, the number of colonies formed was counted (note that the test was performed twice, and an average value was determined). From the determined number of colonies, a growth inhibitory ratio (%) was calculated using the following equation: Growth inhibitory ratio (%)=|(the number of colonies for the control sample−the number of colonies for the sample)|/the number of colonies for the control sample×100

[2] = test system: Candida albicans NERC 1594 strain; assay: Test Example 1: growth inhibitory activity on Candida albicans (membrane filter method, colony count); format: cell-based; conditions: 2 g ripasudil monohydrochloride dihydrate in 270 mL phosphate buffer pH 7.2
Experimental: as §1, with “fungus.” for “fungus. Pseudomonas aeruginosa NBRC 13275 strain was seeded on the soybean-casein digest medium (Merck Corporation) and cultured at 30 to 35° C. for 20 to 22 hours. The culture was then diluted with peptone saline buffer (pH 7.0) to 1,000 CFU/mL or less to obtain a test bacterial suspension.”, “sample×100 Candida albicans NERC 1594 strain was seeded on the Sabouraud-dextrose liquid medium (Merck Corporation) and cultured at 20 to 25° C. for 44 to 46 hours. […] After the culture, the number of colonies formed was counted (note that the test was performed twice, and an average value was determined). A growth inhibitory ratio (%) was also calculated.” for “sample×100”

[3] = at a concentration of 0.001%; cited from earlier work

C[C@H]1CNCCCN1S(=O)(=O)c1cccc2cncc(F)c12 [ripasudil, 4-fluoro-5-[[(2S)-2-methyl-1,4-diazepan-1-yl]sulfonyl]isoquinoline]
Number of Formed Colonies, Sample ([1]; contact 30 minutes or longer, average of two tests, control sample 47 colonies): 0
Growth Inhibitory Ratio ([1]; versus control sample): 100%
Number of Formed Colonies, Sample ([2]; contact 30 minutes or longer, average of two tests, control sample 37 colonies): 23
Growth Inhibitory Ratio ([2]; versus control sample): 37.8%

benzalkonium chloride
antimicrobial activity [3]: sufficient antimicrobial activity is not demonstrated
